{"source": "ChEMBL document CHEMBL1201862", "about": "“PubChem BioAssay data set” (2004)", "key": {"Escherichia coli [1]": {"system": "Escherichia coli", "test": "microbe, parasite or virus in culture"}, "HeLa": {"system": "HeLa", "test": "HeLa cell cytotoxicity, dose response, cytotoxicity control for MITF activator project, CellTiter-Glo luminescence, cherry-pick samples (AID 540259)", "format": "functional, cell-based", "conditions": "Homo sapiens"}, "[2]": {"system": "Streptococcus sp. 'group A'", "test": "growth inhibition of control SK(-) GAS strain, dose response, counter-screen for streptokinase expression inhibitor project, luminescence, kanamycin, BacTiterGlo, confirmation (AID 1900)", "format": "functional, organism-based"}, "[3]": {"target": "T1, Zinc finger protein mex-5 (Caenorhabditis elegans, UniProt Q9XUB2)", "T1 sequence (Q9XUB2 whole entry)": "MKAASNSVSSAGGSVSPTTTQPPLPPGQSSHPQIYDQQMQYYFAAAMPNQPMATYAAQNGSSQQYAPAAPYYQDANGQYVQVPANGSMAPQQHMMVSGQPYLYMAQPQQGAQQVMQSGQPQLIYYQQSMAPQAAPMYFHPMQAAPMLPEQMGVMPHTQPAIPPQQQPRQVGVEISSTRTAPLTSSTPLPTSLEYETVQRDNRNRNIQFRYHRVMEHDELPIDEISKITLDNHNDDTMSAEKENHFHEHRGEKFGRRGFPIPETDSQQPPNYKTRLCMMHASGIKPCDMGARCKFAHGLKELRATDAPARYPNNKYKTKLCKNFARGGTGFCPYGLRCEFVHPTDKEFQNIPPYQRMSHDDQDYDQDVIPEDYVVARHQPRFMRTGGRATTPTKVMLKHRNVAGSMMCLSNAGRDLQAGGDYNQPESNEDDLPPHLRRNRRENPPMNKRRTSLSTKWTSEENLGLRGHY", "test": "MEX-5/TCR-2 RNA interaction inhibitors, dose response, biochemical, C. elegans, fluorescence polarization (AID 1960)"}, "Streptococcus": {"system": "Streptococcus", "test": "Group A Streptococcus viability loss, dose response, counter-screen for streptokinase expression inhibitor project, luminescence, BacTiterGlo (AID 1915);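 further: potency for reduction of bacterial viability or growth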", "format": "functional, organism-based"}, "[4]": {"target": "T2, RNA-binding protein pos-1 (Caenorhabditis elegans, UniProt G5EF15)", "T2 sequence (G5EF15 whole entry)": "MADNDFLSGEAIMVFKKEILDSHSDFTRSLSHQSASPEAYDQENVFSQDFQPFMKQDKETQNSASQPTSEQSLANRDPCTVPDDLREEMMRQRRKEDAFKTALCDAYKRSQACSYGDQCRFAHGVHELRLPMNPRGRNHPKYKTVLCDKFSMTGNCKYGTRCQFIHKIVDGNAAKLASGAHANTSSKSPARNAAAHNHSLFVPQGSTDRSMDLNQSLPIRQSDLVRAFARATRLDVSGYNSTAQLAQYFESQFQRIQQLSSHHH", "test": "inhibitors of POS-1/mex-3 RNA binding, dose response, biochemical, fluorescence polarization (AID 1964);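 further: purified POS-1 fused to maltose binding protein made in E. coli; potency of compounds blocking POS-1 binding to fluorescent RNA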"}, "Escherichia coli [5]": {"system": "Escherichia coli", "test": "microbe, parasite or virus in culture", "remark": "listed apart in the source"}, "[6]": {"target": "Heat shock protein HSP 90-alpha (Homo sapiens, UniProt P07900)", "format": "functional, organism-based"}, "HEK293 [7]": {"system": "HEK293", "test": "cells", "conditions": "Homo sapiens"}, "Vero": {"system": "Vero", "test": "cells", "format": "functional, Chlorocebus sabaeus", "conditions": "Chlorocebus sabaeus, Vero"}, "HEK293 [8]": {"system": "HEK293", "test": "cells", "conditions": "Homo sapiens", "remark": "listed apart in the source"}, "INS1 [9]": {"system": "INS1", "test": "protection of INS-1E cells from cytokine death, dose response, ATP luminescence, dry powder (AID 488844)", "format": "functional, cell-based", "conditions": "Rattus norvegicus"}, "INS1 [10]": {"system": "INS1", "test": "protection from cytokine-induced mitochondrial depolarization, dose response, cell-based, INS-1E, JC-1 fluorescence ratio, dry powder (AID 488931)", "format": "functional", "conditions": "Rattus norvegicus"}, "CAAX prenyl protease 2": {"target": "CAAX prenyl protease 2 (Homo sapiens, UniProt Q9Y256)", "sequence (Q9Y256 whole entry)": "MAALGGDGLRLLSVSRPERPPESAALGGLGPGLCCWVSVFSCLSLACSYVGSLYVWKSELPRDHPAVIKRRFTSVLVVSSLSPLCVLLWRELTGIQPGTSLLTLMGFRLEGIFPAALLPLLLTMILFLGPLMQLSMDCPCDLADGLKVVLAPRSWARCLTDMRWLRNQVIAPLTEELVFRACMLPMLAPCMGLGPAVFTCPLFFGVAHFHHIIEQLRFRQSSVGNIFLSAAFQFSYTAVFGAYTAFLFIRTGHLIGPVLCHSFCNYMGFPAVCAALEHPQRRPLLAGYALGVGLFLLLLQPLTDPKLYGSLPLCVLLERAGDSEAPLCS", "test": "human Rce1 protease inhibitors, dose response, biochemical, yeast membranes, quenched-peptide fluorescence, cherry-pick (AID 588849)"}, "Trypsin": {"target": "Trypsin (Sus scrofa, UniProt P00761)", "sequence (P00761 whole entry)": "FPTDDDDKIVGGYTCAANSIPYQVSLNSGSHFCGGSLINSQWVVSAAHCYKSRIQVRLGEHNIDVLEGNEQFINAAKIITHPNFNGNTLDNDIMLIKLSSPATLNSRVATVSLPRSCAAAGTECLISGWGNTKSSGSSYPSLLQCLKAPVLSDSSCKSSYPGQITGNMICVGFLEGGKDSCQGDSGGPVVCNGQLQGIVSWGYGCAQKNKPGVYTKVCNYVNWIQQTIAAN", "test": "porcine trypsin inhibitors, dose response, selectivity assay for Rce1 protease inhibitor project, biochemical, quenched peptide fluorescence, cherry-pick (AID 488789)"}}, "note": "The source made the active and inactive calls.", "data": [{"smiles": "COc1ccc(-n2c(Cc3cccn3C)nnc2SCC(=O)Nc2ccc(C(C)=O)cc2)cc1", "values": [{"measurement": "AC50", "setting": "Escherichia coli [1]", "result": "56.8 µM (active)"}]}, {"smiles": "CCCC(=O)c1ccc(N2CCCCCC2)c(F)c1", "values": [{"measurement": "AC50", "setting": "HeLa", "result": "205 µM (active)"}]}, {"smiles": "CN(C)c1ccc(O)c2c1CC1CC3C(N(C)C)C(=O)C(C(N)=O)=C(O)[C@@]3(O)C(=O)C1=C2O", "note": "(stereo partly specified)", "values": [{"measurement": "EC50", "setting": "[2]", "result": "0.078 µM (active)"}, {"measurement": "EC50", "setting": "[3]", "result": "37 µM (active)"}, {"measurement": "AC50", "setting": "Escherichia coli [1]", "result": "11.4 µM (active)"}, {"measurement": "EC50", "setting": "Streptococcus", "result": "0.184 µM (active)"}, {"measurement": "EC50", "setting": "[4]", "result": "> 300 µM (not active)"}, {"measurement": "AC50", "setting": "Escherichia coli [5]", "result": "1.78 µM (active)"}]}, {"smiles": "CC(=O)Oc1ccccc1C(=O)C=Cc1cccc([N+](=O)[O-])c1", "values": [{"measurement": "AC50", "setting": "[6]", "result": "3.01 µM (active)"}, {"measurement": "EC50", "setting": "HEK293 [7]", "result": "> 59.6 µM (inactive)"}, {"measurement": "CC50", "setting": "Vero", "result": "16.5 µM (active)"}, {"measurement": "EC50", "setting": "HEK293 [8]", "result": "> 59.6 µM (inactive)"}]}, {"smiles": "Cc1ccc(S(=O)(=O)N(C)C[C@@H]2Oc3c(NC(=O)Nc4ccccc4)cccc3C(=O)N([C@@H](C)CO)C[C@H]2C)cc1", "values": [{"measurement": "AC50", "setting": "INS1 [9]", "result": "27 µM (active)"}, {"measurement": "AC50", "setting": "INS1 [10]", "result": "81.6 µM (active)"}]}, {"smiles": "OCCCNc1ncnc2sc(-c3ccccc3)cc12", "values": [{"measurement": "AC50", "setting": "CAAX prenyl protease 2", "result": "8.43 µM (active)"}, {"measurement": "AC50", "setting": "Trypsin", "result": "7.39 µM (active)"}]}]}
